Measured values from the supplement of paper PMC10307832.

Assays:
Assay in all cases: relative viability (nuclei count vs DMSO), 5 days (fraction); higher = more cells survive
ChaGo-K-1 = system: ChaGo-K-1
How it was run: (§1)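 A single step with final 0.05% Triton X-100, 1% formaldehyde and 1 ug/ml Hoechst fixed the cells and stained nuclei 5 days after treatment. Lung cancer cell lines in 1536-well plates had been treated by pin tool the day after seeding with one drug alone or a fixed anchor-drug dose plus five library-drug doses (not always all listed) in √10 steps, and nuclei were counted on 4× images. Relative viability is the ratio of nuclei in treated wells to nuclei in vehicle wells, taken as the median of duplicate plates.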

EMC-BAC-2 = system: EMC-BAC-2
How it was run: as §1

EPLC-272H = system: EPLC-272H
How it was run: as §1

H3255 = system: H3255
How it was run: as §1

HCC-44 = system: HCC-44
How it was run: as §1

HCC-827 = system: HCC-827
How it was run: as §1

LCLC-103H = system: LCLC-103H
How it was run: as §1

LCLC-97TM1 = system: LCLC-97TM1
How it was run: as §1

NCI-H1355 = system: NCI-H1355
How it was run: as §1

NCI-H1395 = system: NCI-H1395
How it was run: as §1

NCI-H1563 = system: NCI-H1563
How it was run: as §1

NCI-H1651 = system: NCI-H1651
How it was run: as §1

NCI-H1793 = system: NCI-H1793
How it was run: as §1

NCI-H1944 = system: NCI-H1944
How it was run: as §1

NCI-H2023 = system: NCI-H2023
How it was run: as §1

NCI-H2085 = system: NCI-H2085
How it was run: as §1

NCI-H2087 = system: NCI-H2087
How it was run: as §1

NCI-H2405 = system: NCI-H2405
How it was run: as §1

NCI-H322M = system: NCI-H322M
How it was run: as §1

NCI-H520 = system: NCI-H520
How it was run: as §1

NCI-H650 = system: NCI-H650
How it was run: as §1

SK-MES-1 = system: SK-MES-1
How it was run: as §1

UMC-11 = system: UMC-11
How it was run: as §1

Work on CC1(C)CCC(c2ccc(Cl)cc2)=C(CN2CCN(c3ccc(C(=O)NS(=O)(=O)c4ccc(N[C@H](CCN5CCOCC5)CSc5ccccc5)c(S(=O)(=O)C(F)(F)F)c4)cc3)CC2)C1 [Navitoclax] + CS(=O)(=O)N1CCN(Cc2cc3nc(-c4cccc5[nH]ncc45)nc(N4CCOCC4)c3s2)CC1 [Pictilisib] (partner 1 µM) yielded a relative viability (ChaGo-K-1; first compound 0.005 µM) of 0.645, a relative viability (ChaGo-K-1; first compound 0.01581 µM) of 0.799 and a relative viability (ChaGo-K-1; first compound 0.05 µM) of 0.648. It also gave a relative viability (ChaGo-K-1; first compound 0.1581 µM) of 0.641, a relative viability (ChaGo-K-1; first compound 0.5 µM) of 0.667 and a relative viability (EMC-BAC-2; first compound 0.005 µM) of 0.506. For the same molecule, the relative viability (EMC-BAC-2; first compound 0.01581 µM) was 0.646, the relative viability (EMC-BAC-2; first compound 0.05 µM) was 0.565 and the relative viability (EMC-BAC-2; first compound 0.1581 µM) was 0.548. It also gave a relative viability (EMC-BAC-2; first compound 0.5 µM) of 0.6, a relative viability (EPLC-272H; first compound 0.005 µM) of 0.321 and a relative viability (EPLC-272H; first compound 0.1581 µM) of 0.325. For the same molecule, the relative viability (EPLC-272H; first compound 0.5 µM) was 0.306, the relative viability (H3255; first compound 0.005 µM) was 0.524 and the relative viability (H3255; first compound 0.01581 µM) was 0.528. The relative viability (H3255; first compound 0.05 µM) was 0.549, the relative viability (H3255; first compound 0.1581 µM) was 0.45 and the relative viability (H3255; first compound 0.5 µM) was 0.461. It also gave a relative viability (HCC-44; first compound 0.005 µM) of 0.656, a relative viability (HCC-44; first compound 0.01581 µM) of 0.641 and a relative viability (HCC-44; first compound 0.05 µM) of 0.849. The relative viability (HCC-44; first compound 0.1581 µM) was 0.57, the relative viability (HCC-44; first compound 0.5 µM) was 0.456 and the relative viability (HCC-827; first compound 0.005 µM) was 1.12. It also gave a relative viability (HCC-827; first compound 0.01581 µM) of 1, a relative viability (HCC-827; first compound 0.05 µM) of 0.933 and a relative viability (HCC-827; first compound 0.1581 µM) of 0.78. The relative viability (HCC-827; first compound 0.5 µM) was 0.975, the relative viability (LCLC-103H; first compound 0.005 µM) was 0.588 and the relative viability (LCLC-103H; first compound 0.01581 µM) was 0.611. For the same molecule, the relative viability (LCLC-103H; first compound 0.05 µM) was 0.664, the relative viability (LCLC-103H; first compound 0.1581 µM) was 0.611 and the relative viability (LCLC-103H; first compound 0.5 µM) was 0.799. The relative viability (LCLC-97TM1; first compound 0.005 µM) was 0.255, the relative viability (LCLC-97TM1; first compound 0.01581 µM) was 0.146 and the relative viability (LCLC-97TM1; first compound 0.05 µM) was 0.193. It also gave a relative viability (LCLC-97TM1; first compound 0.1581 µM) of 0.187, a relative viability (LCLC-97TM1; first compound 0.5 µM) of 0.153 and a relative viability (NCI-H1355; first compound 0.005 µM) of 0.461. It also gave a relative viability (NCI-H1355; first compound 0.01581 µM) of 0.42, a relative viability (NCI-H1355; first compound 0.05 µM) of 0.416 and a relative viability (NCI-H1355; first compound 0.1581 µM) of 0.497. For the same molecule, the relative viability (NCI-H1355; first compound 0.5 µM) was 0.427, the relative viability (NCI-H1395; first compound 0.005 µM) was 0.692 and the relative viability (NCI-H1395; first compound 0.01581 µM) was 0.645. For the same molecule, the relative viability (NCI-H1395; first compound 0.05 µM) was 0.563, the relative viability (NCI-H1395; first compound 0.1581 µM) was 0.818 and the relative viability (NCI-H1395; first compound 0.5 µM) was 0.67. The relative viability (NCI-H1563; first compound 0.005 µM) was 0.603, the relative viability (NCI-H1563; first compound 0.01581 µM) was 0.667 and the relative viability (NCI-H1563; first compound 0.05 µM) was 0.577. For the same molecule, the relative viability (NCI-H1563; first compound 0.1581 µM) was 0.583, the relative viability (NCI-H1563; first compound 0.5 µM) was 0.693 and the relative viability (NCI-H1651; first compound 0.005 µM) was 0.592. For the same molecule, the relative viability (NCI-H1651; first compound 0.01581 µM) was 0.687, the relative viability (NCI-H1651; first compound 0.1581 µM) was 0.561 and the relative viability (NCI-H1651; first compound 0.5 µM) was 0.559. For the same molecule, the relative viability (NCI-H1793; first compound 0.005 µM) was 0.317, the relative viability (NCI-H1793; first compound 0.01581 µM) was 0.505 and the relative viability (NCI-H1793; first compound 0.05 µM) was 0.301. The relative viability (NCI-H1793; first compound 0.1581 µM) was 0.226, the relative viability (NCI-H1793; first compound 0.5 µM) was 0.242 and the relative viability (NCI-H1944; first compound 0.005 µM) was 0.336. It also gave a relative viability (NCI-H1944; first compound 0.01581 µM) of 0.371, a relative viability (NCI-H1944; first compound 0.05 µM) of 0.374 and a relative viability (NCI-H1944; first compound 0.1581 µM) of 0.357. For the same molecule, the relative viability (NCI-H1944; first compound 0.5 µM) was 0.397, the relative viability (NCI-H2023; first compound 0.005 µM) was 0.282 and the relative viability (NCI-H2023; first compound 0.01581 µM) was 0.248. For the same molecule, the relative viability (NCI-H2023; first compound 0.05 µM) was 0.22, the relative viability (NCI-H2023; first compound 0.1581 µM) was 0.263 and the relative viability (NCI-H2023; first compound 0.5 µM) was 0.269. For the same molecule, the relative viability (NCI-H2085; first compound 0.005 µM) was 0.449, the relative viability (NCI-H2085; first compound 0.01581 µM) was 0.49 and the relative viability (NCI-H2085; first compound 0.05 µM) was 0.475. For the same molecule, the relative viability (NCI-H2085; first compound 0.1581 µM) was 0.507, the relative viability (NCI-H2085; first compound 0.5 µM) was 0.596 and the relative viability (NCI-H2087; first compound 0.005 µM) was 0.806. For the same molecule, the relative viability (NCI-H2087; first compound 0.01581 µM) was 0.976, the relative viability (NCI-H2087; first compound 0.05 µM) was 0.54 and the relative viability (NCI-H2087; first compound 0.1581 µM) was 1.02. The relative viability (NCI-H2087; first compound 0.5 µM) was 0.887, the relative viability (NCI-H2405; first compound 0.005 µM) was 0.409 and the relative viability (NCI-H2405; first compound 0.01581 µM) was 0.754. The relative viability (NCI-H2405; first compound 0.05 µM) was 0.434, the relative viability (NCI-H2405; first compound 0.1581 µM) was 0.451 and the relative viability (NCI-H2405; first compound 0.5 µM) was 0.41. The relative viability (NCI-H322M; first compound 0.005 µM) was 0.485, the relative viability (NCI-H322M; first compound 0.01581 µM) was 0.526 and the relative viability (NCI-H322M; first compound 0.05 µM) was 0.565. It also gave a relative viability (NCI-H322M; first compound 0.1581 µM) of 0.516, a relative viability (NCI-H322M; first compound 0.5 µM) of 0.562 and a relative viability (NCI-H520; first compound 0.005 µM) of 0.305. For the same molecule, the relative viability (NCI-H520; first compound 0.01581 µM) was 0.374, the relative viability (NCI-H520; first compound 0.05 µM) was 0.3 and the relative viability (NCI-H520; first compound 0.1581 µM) was 0.322. The relative viability (NCI-H520; first compound 0.5 µM) was 0.281, the relative viability (NCI-H650; first compound 0.005 µM) was 0.765 and the relative viability (NCI-H650; first compound 0.01581 µM) was 0.948. The relative viability (NCI-H650; first compound 0.05 µM) was 0.869, the relative viability (NCI-H650; first compound 0.1581 µM) was 0.972 and the relative viability (NCI-H650; first compound 0.5 µM) was 0.448. The relative viability (SK-MES-1; first compound 0.005 µM) was 0.458, the relative viability (SK-MES-1; first compound 0.01581 µM) was 0.48 and the relative viability (SK-MES-1; first compound 0.05 µM) was 0.355. For the same molecule, the relative viability (SK-MES-1; first compound 0.1581 µM) was 0.321, the relative viability (SK-MES-1; first compound 0.5 µM) was 0.334 and the relative viability (UMC-11; first compound 0.005 µM) was 0.743. It also gave a relative viability (UMC-11; first compound 0.01581 µM) of 0.809, a relative viability (UMC-11; first compound 0.1581 µM) of 0.741 and a relative viability (UMC-11; first compound 0.5 µM) of 0.516.
